One compound from EP4512427A1, “ANTIBODY-DRUG CONJUGATES BASED ON MOLECULAR GLUE DEGRADERS AND USES THEREOF” (Mablink Bioscience, priority 2023, dated 2025) can be followed below.

The target in test [1] is T1, CDK13/CycK (Homo sapiens, UniProt Q14004).
T1 construct: GST-fusion or His-tag (not given for this kinase); purchased Reaction Biology, Germany; host or cells: Sf9 insect cells or E.coli
Briefly: IC50 profiling on top 25 protein kinases. The class given is biochemical. Particulars: titration from 0.1 nM to 10 000 nM. How it is done:
(§1) Compound 2384 according to the disclosure was subjected to kinase screening assays (performed at Reaction Biology, Germany). […] A radiometric protein kinase assay (33PanQinase® ActivityAssay) was used for measuring the kinase activity of 340 protein kinases. All kinase assays were performed in 96-well FlashPlates™ from Perkin Elmer (Boston, MA, USA) in a 50 µL reaction volume. […] All PKC assays (except the PKC-mu and the PKC-nu assay) additionally contained 1 mM CaCl2, 4 mM EDTA, 5 µg/m! Phosphatidylserine and 1 µg/m! 1,2-Dioleyl-glycerol. The CAMK1D, CAMK2A, CAMK2B, CAMK2D, CAMK2G, CAMK4, CAMKK1, CAMKK2, DAPK2, EEF2K, MYLK, MYLK2 and MYLK3 assays additionally contained 1 µg/ml Calmodulin and 0.5 mM CaCl2. The PRKG1 and PRKG2 assays additionally contained 1 µM cGMP. The DNA-PK assay additionally contained 2.5 µg/ml DNA. The protein kinase reaction cocktails were incubated at 30°C for 60 minutes. The reaction was stopped with 50 µl of 2 % (v/v) H3PO4, plates were aspirated and washed two times with 200 µL 0.9 % (w/v) NaCl. Incorporation of 33Pi (counting of "cpm") was determined with a microplate scintillation counter (Microbeta, Wallac). All protein kinase assays were performed with a BeckmanCoulter Biomek 2000/SL robotic system. All protein kinases provided by RBE were expressed in Sf9 insect cells or in E.coli as recombinant GST-fusion proteins or His-tagged proteins, either as full-length or enzymatically active fragments. All kinases were produced from human cDNAs and purified by either GSH-affinity chromatography or immobilized metal. Affinity tags were removed from a number of kinases during purification. The purity of the protein kinases was examined by SDS-PAGE/Coomassie staining, the identity was checked by mass spectroscopy. Kinases from external vendors were expressed, purified and quality-controlled. Staurosporine was used as positive control.
(§2) Staurosporine was used as positive control.

Test [2] has as its target T2, CDK9/CycK (Homo sapiens, UniProt P50750).
T2 construct: GST-fusion or His-tag (not given for this kinase); purchased Reaction Biology, Germany; host or cells: Sf9 insect cells or E.coli
Briefly: IC50 profiling on top 25 protein kinases. To be noted: titration from 0.1 nM to 10 000 nM. Format: biochemical. On the procedure:
as §1, §2

Test [3] deals with T3, CDK12/CycK (Homo sapiens, UniProt Q9NYV4).
T3 construct: GST-fusion or His-tag (not given for this kinase); purchased Reaction Biology, Germany; host or cells: Sf9 insect cells or E.coli
T3 sequence (Q9NYV4 whole entry, the tested form may be a part): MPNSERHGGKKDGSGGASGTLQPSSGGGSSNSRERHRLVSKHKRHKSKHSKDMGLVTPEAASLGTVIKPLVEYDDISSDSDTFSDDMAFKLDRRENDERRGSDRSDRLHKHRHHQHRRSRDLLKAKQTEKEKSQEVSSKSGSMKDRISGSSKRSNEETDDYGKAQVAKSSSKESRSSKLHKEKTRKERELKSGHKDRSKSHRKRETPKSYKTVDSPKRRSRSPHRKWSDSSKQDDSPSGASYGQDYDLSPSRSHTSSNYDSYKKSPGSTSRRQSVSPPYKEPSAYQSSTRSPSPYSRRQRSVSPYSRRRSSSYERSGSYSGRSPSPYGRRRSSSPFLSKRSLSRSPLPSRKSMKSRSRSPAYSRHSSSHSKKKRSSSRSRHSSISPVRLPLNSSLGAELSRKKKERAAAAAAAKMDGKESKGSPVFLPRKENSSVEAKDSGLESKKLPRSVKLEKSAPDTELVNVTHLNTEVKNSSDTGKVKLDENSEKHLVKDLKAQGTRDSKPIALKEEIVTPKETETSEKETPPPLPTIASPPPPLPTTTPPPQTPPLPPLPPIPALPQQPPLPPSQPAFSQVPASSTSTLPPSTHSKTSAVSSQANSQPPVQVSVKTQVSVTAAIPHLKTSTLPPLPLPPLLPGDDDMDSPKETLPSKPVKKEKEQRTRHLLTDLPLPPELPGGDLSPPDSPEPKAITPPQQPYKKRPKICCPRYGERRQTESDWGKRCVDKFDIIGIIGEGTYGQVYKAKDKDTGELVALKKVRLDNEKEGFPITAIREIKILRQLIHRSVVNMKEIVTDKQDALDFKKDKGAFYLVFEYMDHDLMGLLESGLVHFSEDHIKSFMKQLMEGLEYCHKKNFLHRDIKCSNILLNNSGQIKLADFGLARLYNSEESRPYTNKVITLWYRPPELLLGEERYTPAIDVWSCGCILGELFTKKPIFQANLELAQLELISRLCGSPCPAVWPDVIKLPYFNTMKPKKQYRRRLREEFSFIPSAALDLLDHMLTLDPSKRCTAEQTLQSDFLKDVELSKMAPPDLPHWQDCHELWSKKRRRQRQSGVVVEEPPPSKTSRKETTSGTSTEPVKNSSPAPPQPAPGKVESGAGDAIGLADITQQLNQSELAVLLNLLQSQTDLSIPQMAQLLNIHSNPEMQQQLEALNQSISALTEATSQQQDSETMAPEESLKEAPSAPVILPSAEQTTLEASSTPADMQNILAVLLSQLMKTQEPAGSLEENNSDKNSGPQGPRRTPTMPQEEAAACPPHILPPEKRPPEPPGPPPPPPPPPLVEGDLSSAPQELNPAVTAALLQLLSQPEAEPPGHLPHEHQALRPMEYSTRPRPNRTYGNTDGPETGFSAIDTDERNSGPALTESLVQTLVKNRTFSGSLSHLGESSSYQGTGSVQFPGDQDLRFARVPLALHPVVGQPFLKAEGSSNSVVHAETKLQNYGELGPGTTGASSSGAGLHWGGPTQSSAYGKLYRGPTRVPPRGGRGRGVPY
T3 sequence (O75909 whole entry partner, the tested form may be a part): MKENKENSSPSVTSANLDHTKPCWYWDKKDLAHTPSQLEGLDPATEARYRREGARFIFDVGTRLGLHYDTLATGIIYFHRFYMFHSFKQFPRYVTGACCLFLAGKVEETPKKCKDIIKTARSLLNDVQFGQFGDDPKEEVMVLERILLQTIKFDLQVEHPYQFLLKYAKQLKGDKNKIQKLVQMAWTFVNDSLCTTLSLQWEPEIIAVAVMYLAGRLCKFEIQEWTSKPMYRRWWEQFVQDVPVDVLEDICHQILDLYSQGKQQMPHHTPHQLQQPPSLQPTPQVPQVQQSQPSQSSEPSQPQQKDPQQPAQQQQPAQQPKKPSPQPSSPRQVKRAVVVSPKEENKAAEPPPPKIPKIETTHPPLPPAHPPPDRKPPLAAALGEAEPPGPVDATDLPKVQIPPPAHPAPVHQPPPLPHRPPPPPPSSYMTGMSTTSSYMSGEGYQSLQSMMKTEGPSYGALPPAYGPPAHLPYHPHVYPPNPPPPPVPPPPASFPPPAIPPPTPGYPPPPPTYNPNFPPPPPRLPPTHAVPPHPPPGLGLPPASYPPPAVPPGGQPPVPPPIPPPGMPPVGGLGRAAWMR
Briefly: IC50 profiling on top 25 protein kinases. The class given is biochemical. Particulars: titration from 0.1 nM to 10 000 nM. On the procedure: as §1, §2

In test [4] the target is T4, CDK9/CycT1 (Homo sapiens, UniProt P50750).
T4 construct: GST-fusion or His-tag (not given for this kinase); purchased Reaction Biology, Germany; host or cells: Sf9 insect cells or E.coli
T4 sequence (P50750 whole entry, the tested form may be a part): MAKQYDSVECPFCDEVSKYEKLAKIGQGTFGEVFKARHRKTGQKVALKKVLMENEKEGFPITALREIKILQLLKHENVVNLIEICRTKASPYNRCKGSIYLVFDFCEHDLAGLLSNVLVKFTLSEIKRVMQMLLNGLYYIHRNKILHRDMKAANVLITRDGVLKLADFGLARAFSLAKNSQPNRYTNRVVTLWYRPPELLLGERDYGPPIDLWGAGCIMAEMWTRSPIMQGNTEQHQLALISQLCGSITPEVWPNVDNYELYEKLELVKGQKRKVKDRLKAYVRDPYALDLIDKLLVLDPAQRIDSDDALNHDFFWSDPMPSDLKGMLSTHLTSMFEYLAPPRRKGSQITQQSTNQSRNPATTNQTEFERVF
T4 sequence (O60563 whole entry partner, the tested form may be a part): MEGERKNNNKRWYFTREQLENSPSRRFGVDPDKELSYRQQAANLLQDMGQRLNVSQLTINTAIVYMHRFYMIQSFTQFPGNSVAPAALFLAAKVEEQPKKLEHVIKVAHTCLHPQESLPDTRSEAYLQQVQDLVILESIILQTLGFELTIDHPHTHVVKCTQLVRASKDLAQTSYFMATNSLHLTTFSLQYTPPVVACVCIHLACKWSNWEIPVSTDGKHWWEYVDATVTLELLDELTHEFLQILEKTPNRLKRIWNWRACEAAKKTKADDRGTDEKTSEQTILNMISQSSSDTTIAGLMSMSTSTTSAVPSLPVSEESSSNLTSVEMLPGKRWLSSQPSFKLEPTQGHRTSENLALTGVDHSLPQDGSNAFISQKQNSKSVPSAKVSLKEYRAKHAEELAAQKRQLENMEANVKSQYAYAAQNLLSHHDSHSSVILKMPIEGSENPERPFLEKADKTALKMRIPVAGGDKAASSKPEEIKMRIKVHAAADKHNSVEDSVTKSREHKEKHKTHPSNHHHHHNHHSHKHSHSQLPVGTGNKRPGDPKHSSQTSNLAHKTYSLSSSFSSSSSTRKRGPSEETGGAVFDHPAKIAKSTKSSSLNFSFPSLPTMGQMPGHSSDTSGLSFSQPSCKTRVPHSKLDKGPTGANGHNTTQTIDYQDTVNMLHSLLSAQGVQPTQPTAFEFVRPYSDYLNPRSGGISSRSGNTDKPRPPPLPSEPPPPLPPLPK
Briefly: IC50 profiling on top 25 protein kinases. Format: biochemical. To be noted: titration from 0.1 nM to 10 000 nM. On the procedure:
as §1, §2

In test [5] the test system is JIMT-1 cells. Briefly: Cell cycle arrest assessment (propidium iodide). Particulars: 24h at 2, 5, 10, and 50nM. The class given is cell-based, human. On the procedure:
1×10^6 JIMT-1 cells were plated in 3mL of DMEM/FBS 90:10 (v/v) in 6-well plates and incubated overnight. Cells were treated with the compound 2384 of the invention or with CR8 for 24h. Cells were then harvested and washed three times with PBS. Cells were suspended into 300µL of propidium iodide working solution (0.05mg/mL) and incubated for 45 minutes at 4°C in the dark. Analysis was performed using a BD Fortessa flow cytometer controlled by BD FACSDiva software (BD Biosciences) and data were analyzed using FlowJo software (BD Bioscience).

Test [6] deals with MDA-MB-453. Briefly: In vitro cytotoxicity assay (MTT). To be noted: Homo sapiens, 144 h, 6 days incubation. Format: cell-based, human. In a few lines:
(§3)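 MTT read-out, A570/A690 after acidified-isopropanol solubilisation. Seeding 1000–10 000 cells/well, 24 h settle, serial dilutions, 6 d exposure at 37°C, MTT 1–4 h. IC50 vs untreated control by inhibition curve fit.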

The test system of test [7] is NCI-N87. Briefly: In vitro cytotoxicity assay (MTT). Format: cell-based, human. Particulars: Homo sapiens, 144 h, 6 days incubation. The method in brief:
as §3

The subject of test [8] is JIMT-1. Briefly: In vitro cytotoxicity assay (MTT). Particulars: Homo sapiens, 144 h, 6 days incubation. The class given is cell-based, human. The method in brief: as §3
In test [9] the test system is BT-474. Briefly: In vitro cytotoxicity assay (MTT). The class given is cell-based, human. Particulars: Homo sapiens, BT-474, 144 h. The method in brief: as §3
For test [10], the system named is MDA-MB-231. Briefly: In vitro cytotoxicity assay (MTT). Format: cell-based, human. Particulars: Homo sapiens, 144 h, 6 days incubation. The method in brief: as §3
Test [11] relates to SKBR-3. Briefly: In vitro cytotoxicity assay (MTT). Particulars: Homo sapiens, SK-BR-3, 144 h, 6 days incubation. The class given is cell-based, human. The method in brief: as §3

Molecules are shown by their SMILES.

T2 sequence (P50750 whole entry, the tested form may be a part): as the sequence (P50750 whole entry, the tested form may be a part) above
T2 sequence (O75909 whole entry partner, the tested form may be a part): as the sequence (O75909 whole entry partner, the tested form may be a part) above
T1 sequence (Q14004 whole entry, the tested form may be a part): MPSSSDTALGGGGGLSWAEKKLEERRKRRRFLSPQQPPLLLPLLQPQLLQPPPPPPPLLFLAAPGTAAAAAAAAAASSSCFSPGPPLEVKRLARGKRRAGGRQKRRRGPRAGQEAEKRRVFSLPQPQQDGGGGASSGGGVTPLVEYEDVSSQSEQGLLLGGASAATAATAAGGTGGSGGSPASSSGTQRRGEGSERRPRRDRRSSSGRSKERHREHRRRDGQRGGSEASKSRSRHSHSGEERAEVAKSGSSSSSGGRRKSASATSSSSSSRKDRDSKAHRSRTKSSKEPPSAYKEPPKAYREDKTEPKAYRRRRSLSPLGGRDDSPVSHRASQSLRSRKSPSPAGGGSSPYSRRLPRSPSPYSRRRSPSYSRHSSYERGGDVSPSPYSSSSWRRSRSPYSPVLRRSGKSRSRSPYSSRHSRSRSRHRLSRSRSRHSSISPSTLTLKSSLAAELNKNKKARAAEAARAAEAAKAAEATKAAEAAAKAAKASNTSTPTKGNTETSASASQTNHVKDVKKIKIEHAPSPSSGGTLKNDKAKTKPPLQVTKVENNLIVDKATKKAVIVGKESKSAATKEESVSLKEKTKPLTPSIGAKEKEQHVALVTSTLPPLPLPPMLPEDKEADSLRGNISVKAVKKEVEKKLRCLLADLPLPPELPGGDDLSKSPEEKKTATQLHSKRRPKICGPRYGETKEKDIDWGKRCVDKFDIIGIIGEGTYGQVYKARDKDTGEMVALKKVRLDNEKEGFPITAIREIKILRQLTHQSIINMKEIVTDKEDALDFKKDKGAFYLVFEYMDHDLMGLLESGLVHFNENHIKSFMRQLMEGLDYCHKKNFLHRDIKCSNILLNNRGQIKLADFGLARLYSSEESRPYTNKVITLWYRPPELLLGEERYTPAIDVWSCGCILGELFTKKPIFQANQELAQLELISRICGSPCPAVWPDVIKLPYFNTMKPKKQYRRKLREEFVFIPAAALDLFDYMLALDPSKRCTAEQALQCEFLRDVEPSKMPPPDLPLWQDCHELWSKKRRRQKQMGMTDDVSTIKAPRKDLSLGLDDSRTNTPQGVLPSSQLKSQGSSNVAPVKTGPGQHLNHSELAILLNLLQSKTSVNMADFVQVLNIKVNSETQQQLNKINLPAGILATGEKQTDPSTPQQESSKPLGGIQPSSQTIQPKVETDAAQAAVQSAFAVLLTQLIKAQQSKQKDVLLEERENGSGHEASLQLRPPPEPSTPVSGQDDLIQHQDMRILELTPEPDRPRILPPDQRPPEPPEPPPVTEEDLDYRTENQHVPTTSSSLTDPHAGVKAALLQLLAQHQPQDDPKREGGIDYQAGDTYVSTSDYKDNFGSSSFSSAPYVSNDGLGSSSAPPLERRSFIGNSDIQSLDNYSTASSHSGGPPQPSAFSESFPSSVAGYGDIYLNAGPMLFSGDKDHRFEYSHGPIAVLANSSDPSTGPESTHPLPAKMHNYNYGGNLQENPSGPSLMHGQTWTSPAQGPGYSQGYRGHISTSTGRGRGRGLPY
T1 sequence (O75909 whole entry partner, the tested form may be a part): as the sequence (O75909 whole entry partner, the tested form may be a part) above

A word on the IC50: it is the point on the concentration scale where inhibition reaches its midpoint. A low value points to greater potency in that assay. For `N[C@H]1CC[C@H](Nc2nc(NCc3ccc(-c4ccccn4)cc3)n3ncc(Br)c3n2)CC1` [Compound 2384], the IC50 is < 25 nM in [1]; < 25 nM in test [2]; < 25 nM in test [3]; < 25 nM in test [4]; 0.53 nM in [6]; 0.76 nM in test [7]. Further, the IC50 in test [8] came out at 0.25 nM; in test [9], 0.94 nM; in test [10], 0.38 nM; in [11], 0.73 nM. The cell cycle analysis result in test [5] is “arrest in the G2/M phase”.
